Results on one sequence are retold here after patent US20240124528A1, “ANTAGONIST OF INTERLEUKIN-17B RECEPTOR (IL-17RB) AND USE THEREOF” (Academia Sinica, priority 2020, published 2024).

For data set [1], the system named is pancreatic cancer cells expressing IL-17RB. The experiment in a line: Invasion assay after peptide treatment. It counts as cell-based, human. The conditions noted are these: CFPAC1 and PDX-derived cells treated with peptide. An excerpt: (§1) FIGS. 7A to 7J include charts showing that disruption of the interaction between IL-17RB and MLK4 by the loop peptide blocks oncogenic progression. (FIG. 7A) Peptides TAT48-57 (Control) (SEQ ID NO: 21) and TAT-IL-17RB403-416 (Loop) (SEQ ID NO: 30) used for the following experiments. (FIG. 7B) Immunoblotting analysis of IL-17RB binding to MLK4 with Loop peptide treatment. 293T cells expressing Flag-MLK4 and HA-IL-17RB were pretreated with the control and loop peptides with different dose (0, 0.1, 1, 10, 50, 100 ng/ml) for 30 mins, and then added rIL-17B for 30 mins. […] CCL20 and TFF/mRNA expression of these cells were measured by RT-qPCR (n=3) (FIG. 7D), the same cells were for invasion assay (n=4) (FIG. 7E) and SACF assay (n=4) (FIG. 7F). […] (FIG. 7I) The experimental EKP mice (n=7 for each group) were euthanized at Day 56, and the metastatic tumor nodules in the lungs were counted. […]
(§2) FIGS. 19A to 19D include charts showing that treatment with the loop peptide suppresses aggressive behavior of patient-derived pancreatic tumor cells. […] (FIG. 19C and FIG. 19D) These cells were measured by RT-qPCR for the cytokine gene mRNA expression (n=3), or for Invasion assay (n=4) (FIG. 19C) and SACF assay (n=4) (FIG. 19D). […]

The test system is the same in data set [2]. Briefly: Soft agar colony formation (SACF) assay after peptide treatment. The format is cell-based, human. The conditions noted are these: CFPAC1 and PDX-derived cells treated with peptide.
Description: as §1, §2
Soft agar colony formation assay was performed as described (7). […] Crystal violet-stained colonies greater than 50 μm in size were counted and analyzed objectively by light microscopy.

For data set [3] the test system is unchanged. Briefly: RT-qPCR of cytokine gene expression (CCL20, TFF1) after peptide pretreatment and rIL-17B. It counts as cell-based, human. The conditions noted are these: CFPAC1 and PDX-derived cells; peptide 50 ng/ml 30 mins, then rIL-17B 2 hrs.
Description: as §1, §2

Data set [4] has as its system DCs derived from mouse bone marrow. It counts as cell-based. As to the method: (FIG. 24A) Flow chart describing the experimental design for testing the effects of anti-IL-17RB antibody and loop peptide on IL-17E-induced expression of IL-4 and IL-13 in peripheral blood mononuclear cells (PBMCs). PBMCs were purified by Ficoll-paque and used for the following experiments. (FIG. 24B to FIG. 24E) IL-4 and IL-13 expression induced by IL-17B or IL-17E in the PBMCs was determined by RT-qPCR after mIgG or anti-IL-17RB antibody pretreatment (FIG. 24B and FIG. 24C) and control or loop peptide pretreatment (FIG. 24D and FIG. 24E), respectively. (FIG. 24F and FIG. 24G) The DCs derived from mouse bone marrow were treated with the control or loop peptides, separately. (FIG. 24F) Flow cytometry analysis using anti-CD80, CD86 and MHC-II antibodies was performed to determine the activity of the DCs after incubation with the control or loop peptides for 48 hrs. (FIG. 24G) The activities of DCs were quantified by gating the area of the CD80, CD86 and MHC-II-positive cells (n=3). Data are mean±s.d.

Take “RKKRRQRRRVCDGTCGKSEGSPS (IL-17RB inhibitory peptide, fusion protein) [loop peptide]”: in data set [1], the invasion ability result is listed as “diminished”. For the same sequence, the “colony formation ability (SACF)” value in data set [2] was “diminished”. Moreover, the “cytokine gene expression (CCL20, TFF1 mRNA)” value in data set [3] is listed as “diminished”. Also, the “bone marrow-derived dendritic cell activation (CD80, CD86, MHC-II)” value in data set [4] was “does not suppress IL-17E-induced IL-4 and IL-13 mRNA expression in PBMCs or affect”.
